# Data taken from US20240165096A1, “Anti Viral Therapy” (priority 2021, published 2024).
# Where a name gives a salt, the structure may show the parent alone. Read-outs that look alike come from different tables or passages of the source.
# What was measured:
# [1] = system: SARS-COV-2; assay: microbe, parasite or virus in culture; conditions: Severe acute respiratory syndrome coronavirus 2, Calu-3, in Homo sapiens, read-out: protection from infection of SARS-COV-2 (percent inhibition of CPE)
# [2] = system: SARS-COV-2; type: cell-based
# [3] = system: IFNλ
# [4] = system: SARS-COV-2; assay: microbe, parasite or virus in culture; type: cell-based; conditions: for decrease in the amount of virus released from infected Calu3 cells: pretreatment 24 h, PHE strain MOI 0.1, plaque assay; for IC50: Severe acute respiratory syndrome coronavirus 2, Calu-3, drug alone, infected Calu3 cells, pre-treated 24 hours prior to infection, 6 concentrations
# [5] = system: Vero cells
# Description: (§1) Compounds were acoustically transferred into black 384 well optical bottom plates (Nunc-UK). Calu-3 and Vero cells were maintained as described for the infection assay and seeded in the assay-ready plates at a density of 3×10^3 cells/well for Vero cells, and 9×10^3 cells/well for Calu-3 cells. Plates were incubated for 72 h at 37° C. and 5% CO2. To assess cell toxicity, CellTox™ Green Cytotoxicity Assay (Promega-UK) was undertaken following the manufacturer's instructions. Plates were incubated for 15 min prior to recording fluorescence (480/520 nm) using a […] (CLARIOstar Plus; BMG LABTECH, UK).
# [6] = system: Calu3 cells
# Description: as §1
# [7] = system: SARS-COV-2 NSP12 RNA; assay: RT-qPCR of viral NSP12 RNA in infected Calu3 cells; type: cell-based
# [8] = system: SARS-COV-2; conditions: 5 μM, Calu3 and Vero cells, MOI 0.1, CPE 3 days post infection
smiles,measurement,setting,value
CN1CCC(=C2c3ccccc3CCc3cccnc32)CC1 [Azatadine],inhibition at 5 µM,[1],≥ 90%
same,reduction of virus growth kinetics,[2],10^2 PFU/mL
same,SARS-COV-2 titres following treatment,"[2]; donor #311, 25 μM",no difference
same,IFNλ release and/or activity (expression),[3],enhanced the release and/or activity of IFNλ
same,SARS-COV-2-mediated cytotoxicity,[3],robustly inhibited
same,rank among interferon-enhancing drugs,[3],top 1%
same,IFNλ release and/or activity (expression),[3]; listed as Azatadine maleate,increase IFN-λ expression
same,decrease in the amount of virus released from infected Calu3 cells,[4]; 5 μM,~100 fold
same,decrease in the amount of virus released from infected Calu3 cells,[4]; 25 μM,~5000 fold
same,IC50,[4],~4900 nM
same,levels of mature infectious viral particles released from infected cells,"[4]; both concentrations (5 and 25 μM), plaque assay",substantially reduced
same,cytotoxicity on Vero cells,[5],not cytotoxic
same,cytotoxicity on Calu3 cells,[6],not cytotoxic
same,reduction of viral NSP12 RNA levels,"[7]; 5 μM, infected Calu3 cells",~50%
same,levels of viral NSP12 RNA,"[7]; both concentrations (5 and 25 μM), RT-qPCR",substantially reduced
CN1CCC(=C2c3ccccc3C=Cc3ccccc32)CC1 [Cyproheptadine],antiviral effects in the screens,[8],did not show any antiviral effects
O=C(O)COCCN1CCN([C@H](c2ccccc2)c2ccc(Cl)cc2)CC1 [Levocetirizine Dihydrochloride],IFNλ release and/or activity (expression),[3],enhanced IFNλ release and/or activity
same,SARS-COV-2-mediated cytotoxicity,[3],failed to inhibit cytotoxicity
CCC(CC)COC(=O)[C@H](C)N[P@](=O)(OC[C@H]1O[C@@](C#N)(c2ccc3c(N)ncnn23)[C@H](O)[C@@H]1O)Oc1ccccc1 [Remdesivir],reduction of virus growth kinetics,[2],10^3 PFU/mL
same,reduction in viral titres relative to the DMSO control,"[2]; donor #311, 1 μM",1.47 log10
same,decrease in the amount of virus released from infected Calu3 cells,[4]; 1 μM,~5000 fold
same,IC50,[4],~190 nM
